According to patent EP3970691A1, “SLIMMING COSMETIC COMPOSITIONS CONTAINING ONE OR MORE LIMONOIDS” (C.F.E.B. Sisley, priority 2020, dated 2022):

Legend:
Assay type in all cases: cell-based
3T3-L1 [1] = experiment: Oil Red O neutral lipid quantification (spectrophotometry) in differentiating 3T3-L1; conditions: for quantité de lipides: vs control
Excerpt: Brièvement : Des cellules 3T3-L1 ont été ensemencés dans leur milieu d'entretien. A confluence, les cellules ont été mises au contact des produits à tester dans un milieu permettant la différentiation des pré-adipocytes en adipocytes via la présence d'un cocktail d'induction. A l'issue du contact, les lipides neutres stockés dans les gouttelettes lipidiques des adipocytes ont été marqués par la coloration Huile Rouge O. Les lipides neutres ont été extraits (extraction à l'isopropanol) et dosés par spectrophotométrie. Les densités optiques obtenues sont proportionnelles à la quantité de lipides.

CERT [2] = molecular target: T1, CERT (Mus musculus, UniProt Q9EQG9); experiment: Dose-response on basal 3T3-L1: total ceramide assay (DAG kinase) as readout of CERT inhibition; conditions: 3T3-L1 in basal state, total ceramides; data not shown
T1 construct: endogenous in cells; host or cells: 3T3-L1
T1 sequence (Q9EQG9 1-624): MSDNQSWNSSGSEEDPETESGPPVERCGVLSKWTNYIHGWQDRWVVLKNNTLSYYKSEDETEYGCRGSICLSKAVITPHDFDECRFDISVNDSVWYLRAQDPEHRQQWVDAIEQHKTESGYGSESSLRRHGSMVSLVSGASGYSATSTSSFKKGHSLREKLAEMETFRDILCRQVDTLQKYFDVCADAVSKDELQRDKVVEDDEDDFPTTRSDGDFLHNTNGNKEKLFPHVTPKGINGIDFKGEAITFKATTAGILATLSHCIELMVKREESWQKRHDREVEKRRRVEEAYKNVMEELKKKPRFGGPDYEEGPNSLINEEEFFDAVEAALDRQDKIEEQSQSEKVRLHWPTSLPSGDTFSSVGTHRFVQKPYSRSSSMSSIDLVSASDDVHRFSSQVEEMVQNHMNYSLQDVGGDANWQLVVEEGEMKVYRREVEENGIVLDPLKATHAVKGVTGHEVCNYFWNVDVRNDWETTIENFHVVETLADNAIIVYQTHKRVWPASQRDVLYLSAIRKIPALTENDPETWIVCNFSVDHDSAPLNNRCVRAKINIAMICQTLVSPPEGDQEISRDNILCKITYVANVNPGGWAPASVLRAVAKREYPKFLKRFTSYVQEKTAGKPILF
Excerpt: (§1) Les taux de céramides dans les extraits de lipides cellulaires sont mesurés par la méthode enzymatique de la DAG kinase. Le principe de ce dosage est de phosphoryler les céramides avec de l'ATP radiomarqué grâce à l'action de cette enzyme, puis de quantifier les radiations obtenues pour chaque échantillons, permettant ainsi de doser la quantité totale de céramides présents initialement dans les échantillons. Les résultats sont exprimés en fmol de céramides et normalisés par rapport à la quantité de phospholipides totaux dans les échantillons, exprimée en nmol.
(§2) La quantité de phospholipides totaux contenue dans les extraits cellulaires est dosée afin de normaliser les céramides présents dans chaque échantillon. La quantité de phospholipides totaux est mesurée par spectrophotométrie : l'absorbance est mesurée à 660 nm, puis calculée grâce à une gamme de sodium phosphate dibasique (Sigma-Aldrich) permettant de déterminer la concentration en phosphates dans chaque échantillon.

CERT [3] = molecular target: T1, CERT; experiment: Total ceramides and sphingomyelins during 3T3-L1 differentiation under gedunin treatment
Description: (§3) Le protocole de différenciation se déroule en deux étapes : une phase d'induction (2 jours) suivie d'une étape d'accumulation (2 à 5 jours). • Milieu d'induction : Il s'agit du milieu d'entretien des 3T3-L1 supplémenté de 1µM d'Insuline; 1.25µM de Dexaméthasone et 250µM d' IBMX (3-isobutyl-1-methylxanthine) • Cocktail d'accumulation : Ce milieu est composé du milieu d'entretien des 3T3-L1 supplémenté de 1µM d'Insuline ;
Les lipides ont été extraits et les échantillons préparés pour la chromatographie liquide couplée à la spectrométrie de masse (cf. Bligh E.G. et al, 1959).
as §1, §2
Afin de déterminer si la GED est capable d'inhiber le transport des céramides du RE vers le Golgi au cours du processus de différenciation des 3T3-L1, ces cellules ont été mises en contact de la GED au cours des deux phases du protocole (Schéma 3). Puis les céramides totaux et les sphingomyélines ont été quantifiés (figure 2A).

pré-adipocytes humains = experiment: RT-qPCR gene expression in differentiating human pre-adipocytes; conditions: treated during induction phase
Description: Comme pour les 3T3-L1, le protocole de différenciation des PrAH se déroule en deux étapes : les cellules sont exposées à milieu d'induction puis à un milieu d'accumulation, ces deux phases durant 10 jours chacune.
Le milieu d'induction est composé du milieu d'entretien supplémenté de l'insuline à 1µM, de l'IBMX à 500µM, de la dexaméthasone à 1µM ainsi que de l'indométhacine à 200µM. Le milieu d'accumulation est quant à lui composé du milieu d'entretien auquel on ajoute de l'insuline à 1µM.
(§4) L'extraction des ARNm à partir de ces échantillons est réalisée avec un kit RNeasy® Mini Kit, commercialisé par QIAGEN®.
(§5) La rétrotranscription des ARN extraits des échantillons en ADNc est réalisée selon le protocole suivant : les ARN sont incubés à 50°C pendant 30 minutes afin de réaliser la rétro-transcription des ARN en présence de la réversetranscriptase M-MLV; puis à 95°C pendant 15 minutes afin d'inhiber l'activité de la rétrotranscriptase, de dégrader les amorces d'ARN et d'activer la polymérase.
(§6) La PCR quantitative est réalisée dans Le LightCylcer 1.5 (Roche) grâce au kit FastStart DNA Master plus SYBR Green I (Roche).
Dans un premier temps, les cellules ont donc été traitées avec de la Gédunine durant la phase d'induction. Le niveau d'expression de gènes impliqués dans l'adipogenèse et dans la fonction adipocytaire a été évalué. Dans un deuxième temps, les cellules ont été colorées avec de l'Huile Rouge afin de visualiser leur capacité à stocker des lipides au sein de leurs gouttelettes lipidiques.

3T3-L1 [4] = experiment: Oil Red staining of lipid droplets in 3T3-L1 (microscopy); conditions: AdJ7, 10µM in induction (GED1) or accumulation (GED2) phase
Excerpt: Afin de visualiser les gouttelettes lipidiques contenues dans les adipocytes matures et donc de quantifier le niveau de différenciation des cellules, les lipides sont marqués avec de l'huile rouge. L'huile rouge est un colorant liposoluble qui colore les lipides neutres et donc les triglycérides stockés dans les gouttelettes.
(§7) L'inhibition de CERT, et donc de la synthèse de SM, par le traitement à la GED ayant été validée, la question a donc ensuite été de savoir si cela avait un effet sur la capacité de différenciation des cellules. Le même protocole de différenciation a donc été appliqué, associé ou non à un traitement à la Ged (figure 2A), et les niveaux d'expression de gènes impliqués d'une part dans l'adipogenèse et d'autre part dans la fonction adipocytaire ont été mesurés. Par ailleurs, les analyses transcriptomiques ont été combinées avec une analyse phénotypique des échantillons : un marquage à l'huile rouge, qui, en marquant les lipides, permet de visualiser les gouttelettes lipidiques dans les cellules et donc de savoir si celles-ci sont différenciées et fonctionnelles.

3T3-L1 [5] = experiment: RT-qPCR expression of adipogenesis and adipocyte function genes during 3T3-L1 differentiation
Description: as §3, §4, §5, §6, §7
Les niveaux d'expression des gènes Pref1, comme marqueur pré-adipocytaire, ainsi que de PPARγ, C/EBPα et C/EBPδ qui sont des FT clés dans l'adipogenèse, ont été mesurés.

[6] = GED1 and GED2, stage AdJ7, vs CTRL

## CC1(C)O[C@H]2CC(=O)OC[C@]23[C@H]2CC[C@@]4(C)[C@H](c5ccoc5)OC(=O)[C@H]5O[C@]54[C@]2(C)C(=O)C[C@@H]13 [Limonine, limonine]
3T3-L1 [1]; Limonine 10µM
  % variation versus contrôle: -10%
  Moyenne ± écart type (Densité optique à 490nm): 0,492 ± 0,061
3T3-L1 [1]; Limonine 2OµM
  % variation versus contrôle: -16,5%
  Moyenne ± écart type (Densité optique à 490nm): 0,455 ± 0,037
3T3-L1 [1]; limonin experiment, tested concentrations (10 and 20 µM)
  cytotoxicité: Aucune cytotoxicité
3T3-L1 [1]; limonin experiment
  quantité de lipides: baisse dose dépendante de la quantité de lipides
3T3-L1 [1]; mandarin extract experiment
  quantité de lipides: baisse dose dépendante de la quantité de lipides

## CC(=O)O[C@@H]1C[C@H]2C(C)(C)C(=O)C=C[C@]2(C)[C@H]2CC[C@@]3(C)[C@H](c4ccoc4)OC(=O)[C@H]4O[C@]43[C@@]21C [Gédunine, gédunine]
CERT [2]
  dose de GED à partir de laquelle les céramides commencent à s'accumuler: ≥ 10 µM
CERT [3]; 3T3-L1, 10µM in induction phase, then control accumulation medium without GED
  céramides totaux: ne présentent pas d'accumulation des céramides
CERT [3]; 3T3-L1, 10µM, AdJ2 treated in induction phase and AdJ7 treated in accumulation phase, vs control
  céramides totaux: accumulation des céramides significative
CERT [3]; 3T3-L1, 10µM, after 5 days of accumulation, treatment in first or second step
  accumulation de SM: diminuer significativement l'accumulation de SM
CERT [3]; 3T3-L1, 10µM, early stage, just before accumulation step
  quantité de SM: légère diminution de la quantité de SM, toutefois non significative
pré-adipocytes humains; CTRL vs GED
  expression du marqueur pré-adipocytaire Pref1: aucune différence significative
pré-adipocytes humains; vs CTRL
  expressions de AdipoQ, FAS et LPL: diminution des expressions de AdipoQ, FAS et LPL
  induction de l'expression de PPARγ: fortement diminuée
3T3-L1 [4]
  marquage des lipides neutres par l'huile rouge: ne sont plus marquées
3T3-L1 [5]; 10µM in accumulation phase
  expression de PPARγ: diminution drastique de l'induction de l'expression de PPARγ
3T3-L1 [5]; 10µM in induction or accumulation phase, stages AdJ2 and AdJ7
  expression de CD36, FAS, LPL et adiponectine: diminue l'induction de l'expression de ces 4 gènes
3T3-L1 [5]; 10µM in induction phase, stages AdJ2 and AdJ7
  expression de PPARγ: diminution de cette induction de l'expression de PPARγ
3T3-L1 [5]; 10µM, stage AdJ2
  expression de C/EBPδ: semble diminuer, toutefois non-significativement
3T3-L1 [5]; AdJ7 GED2 (10µM in accumulation phase)
  expression de CD36, FAS, LPL et adiponectine: diminution drastique
3T3-L1 [5]; GED1 (10µM in induction phase), stage AdJ2
  expression de Pref1: diminue de la même manière que chez les CTRL
3T3-L1 [5]; GED1 (10µM in induction phase), stage AdJ7
  expression de Pref1: n'est plus réprimé
3T3-L1 [5]; [6]
  expression de C/EBPα: diminuée
  niveau d'expression de C/EBPδ: significativement augmenté
3T3-L1 [5]; GED2 (10µM in accumulation phase), stage AdJ7
  expression de Pref1: identique à celle des CTRL
